Measured values as given in the NIST ThermoML archive (doi:10.1021/je100760v).
Numbers after ± are expanded uncertainties.

Assay: osmotic coefficient (dimensionless); mn = molality of the nth substance listed, in mol/kg
Conditions: Liquid, isopiestic method

O.O=C([O-])C(=O)[O-].[K+].[K+] [potassium oxalate monohydrate] + O
Conditions | osmotic coefficient
298.15 K, m1 = 0.2731 | 0.764 ± 0.012
298.15 K, m1 = 0.3247 | 0.747 ± 0.013
298.15 K, m1 = 0.3721 | 0.742 ± 0.013
298.15 K, m1 = 0.4551 | 0.736 ± 0.013
298.15 K, m1 = 0.4898 | 0.737 ± 0.013
298.15 K, m1 = 0.5836 | 0.735 ± 0.013
298.15 K, m1 = 0.7175 | 0.741 ± 0.013
298.15 K, m1 = 0.8532 | 0.747 ± 0.013
298.15 K, m1 = 0.879 | 0.746 ± 0.013
298.15 K, m1 = 1.163 | 0.76 ± 0.012
298.15 K, m1 = 1.224 | 0.76 ± 0.012
298.15 K, m1 = 1.403 | 0.77 ± 0.012
298.15 K, m1 = 1.446 | 0.771 ± 0.011
298.15 K, m1 = 1.553 | 0.775 ± 0.011
298.15 K, m1 = 1.631 | 0.777 ± 0.011
298.15 K, m1 = 1.763 | 0.782 ± 0.011
298.15 K, m1 = 1.86 | 0.789 ± 0.011
298.15 K, m1 = 1.865 | 0.787 ± 0.011
298.15 K, m1 = 1.961 | 0.791 ± 0.01
298.15 K, m1 = 2.166 | 0.801 ± 0.01
308.15 K, m1 = 0.197 | 0.768 ± 0.012
308.15 K, m1 = 0.2519 | 0.745 ± 0.013
308.15 K, m1 = 0.2974 | 0.737 ± 0.013
308.15 K, m1 = 0.3637 | 0.734 ± 0.013
308.15 K, m1 = 0.4596 | 0.726 ± 0.014
308.15 K, m1 = 0.5269 | 0.72 ± 0.014
308.15 K, m1 = 0.5465 | 0.719 ± 0.014
308.15 K, m1 = 0.5956 | 0.719 ± 0.014
308.15 K, m1 = 0.6873 | 0.722 ± 0.014
308.15 K, m1 = 0.7481 | 0.721 ± 0.014
308.15 K, m1 = 0.8067 | 0.719 ± 0.014
308.15 K, m1 = 0.8889 | 0.721 ± 0.014
308.15 K, m1 = 0.9189 | 0.724 ± 0.014
308.15 K, m1 = 1.088 | 0.73 ± 0.014
308.15 K, m1 = 1.269 | 0.739 ± 0.013
308.15 K, m1 = 1.541 | 0.751 ± 0.012
308.15 K, m1 = 1.754 | 0.768 ± 0.012
308.15 K, m1 = 1.933 | 0.777 ± 0.011
308.15 K, m1 = 1.991 | 0.782 ± 0.011
308.15 K, m1 = 2.108 | 0.792 ± 0.01
308.15 K, m1 = 2.305 | 0.804 ± 0.01
318.15 K, m1 = 0.2751 | 0.729 ± 0.014
318.15 K, m1 = 0.3201 | 0.725 ± 0.014
318.15 K, m1 = 0.3228 | 0.721 ± 0.014
318.15 K, m1 = 0.4383 | 0.709 ± 0.015
318.15 K, m1 = 0.4892 | 0.709 ± 0.015
318.15 K, m1 = 0.596 | 0.705 ± 0.015
318.15 K, m1 = 0.7938 | 0.704 ± 0.015
318.15 K, m1 = 0.8879 | 0.707 ± 0.015
318.15 K, m1 = 1.088 | 0.715 ± 0.014
318.15 K, m1 = 1.261 | 0.72 ± 0.014
318.15 K, m1 = 1.296 | 0.725 ± 0.014
318.15 K, m1 = 1.643 | 0.749 ± 0.013
318.15 K, m1 = 1.671 | 0.748 ± 0.013
318.15 K, m1 = 1.72 | 0.754 ± 0.012
318.15 K, m1 = 1.738 | 0.752 ± 0.012
318.15 K, m1 = 1.869 | 0.763 ± 0.012
318.15 K, m1 = 2.217 | 0.78 ± 0.011
